Test results as given in ChEMBL document CHEMBL1201862, “PubChem BioAssay data set” (2004).
Active and inactive are the calls of the source.

Assays:
[1] = A549 cell cytotoxicity, dose response, cytotoxicity control, plate reader, cherry-pick, antagonist series (AID 743412); assay type: functional, cell-based
[2] = toxicity toward HepG2 liver cells – cell-based, plate reader, cherry-pick, antagonist series, cytotoxicity control, dose response (AID 743416); assay type: functional
[3] = blockers of bursicon-stimulated LGR2 cAMP reporter – cell-based, HEK293, CRE-luciferase reporter, cherry pick, set 2, dose response (AID 743343); assay type: functional;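 note: transfected cells were stimulated with diluted bursicon conditioned medium after compound addition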
[4] = blockade of melanocortin 4 receptor signaling – cell-based, plate reader, cherry pick, counter-screen for LGR2 antagonist project, dose response (AID 743444); assay type: functional;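 note: transfected HEK 293 cells stimulated with alpha-MSH peptide; potency of inhibitors of the alpha-MSH evoked signal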
[5] = viability loss in HEK293 cells – cell-based, plate reader, cherry-picked samples, cytotoxicity control, dose response (AID 743446); assay type: functional
[6] = viability of uninfected HEp-2 cells – cell-based, HTS, cytotoxicity control for RSV inhibitor project, dose response (AID 2410); assay type: functional; settings: human respiratory syncytial virus
[7] = HPDE-C7 pancreatic duct cell viability loss – fluorescence, HTS (AID 430); assay type: functional, cell-based; settings: Homo sapiens
[8] = Trypanosoma cruzi growth suppression in host cells – NIH3T3 host cells, beta-gal luminescence, confirmation (AID 2044); assay type: functional, cell-based;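 note: intracellular parasites grown in NIH/3T3 mouse fibroblasts as host cells; luminescent beta-galactosidase reporter signal from transgenic T. cruzi replicating inside host cells; inhibitors lower the luminescence signal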
[9] = viability loss of HPDE-C7K cells – cell-based, fluorescence, HTS, primary screen (AID 431); assay type: functional; settings: Homo sapiens
[10] = NIH3T3 cell viability loss – ATP luminescence, mouse fibroblasts, counter-screen, dose response (AID 2010); assay type: functional, cell-based;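 note: cells exposed to compound for about 90 hours before reading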
[11] = molecular target: T1, Heat shock factor protein 1 (Mus musculus, UniProt P38532); test: enhancement of HSF1-driven luciferase signal – cell-based, NIH3T3, luminescence, dose retest, confirmation (AID 435004); assay type: functional;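 note: stress induced by proteasome inhibitor MG132 added 30 min after compound; luciferase reporter driven by HSF1 response element in NIH3T3 cells; actives raise luminescence as potentiators of the MG132 stress response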
T1 sequence (P38532 whole entry): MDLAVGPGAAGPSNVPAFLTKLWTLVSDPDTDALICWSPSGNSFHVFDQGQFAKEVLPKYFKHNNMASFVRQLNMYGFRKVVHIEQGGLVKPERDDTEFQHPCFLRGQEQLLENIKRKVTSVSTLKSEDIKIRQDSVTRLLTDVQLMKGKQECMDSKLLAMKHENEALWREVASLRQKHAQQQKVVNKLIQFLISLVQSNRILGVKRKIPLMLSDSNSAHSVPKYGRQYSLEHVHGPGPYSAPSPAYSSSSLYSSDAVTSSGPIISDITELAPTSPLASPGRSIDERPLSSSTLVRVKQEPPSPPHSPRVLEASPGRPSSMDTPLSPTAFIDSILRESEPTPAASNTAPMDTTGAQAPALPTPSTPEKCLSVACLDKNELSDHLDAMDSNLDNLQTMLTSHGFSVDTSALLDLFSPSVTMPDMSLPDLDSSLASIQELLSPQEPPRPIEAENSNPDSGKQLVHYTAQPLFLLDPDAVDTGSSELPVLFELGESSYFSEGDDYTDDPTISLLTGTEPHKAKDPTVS

[12] = molecular target: Mitogen-activated protein kinase 10 (Homo sapiens, UniProt P53779); test: Dose response biochemical screening assay for inhibitors of c-Jun N-Terminal Kinase 3 (JNK3). [Related pubchem assays: 746 ]
[13] = molecular target: T2, Fatty acid synthase (Homo sapiens, UniProt P49327); test: inhibition of human FAS-TE enzyme activity – biochemical, endpoint fluorescence intensity, uHTS hits, dose response (AID 624327); assay type: functional;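 note: fluorescence from hydrolysis of an O-methyl fluorescein acyl ester substrate by the enzyme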
[14] = molecular target: T2, Fatty acid synthase; test: inhibition of human FAS-TE enzyme activity – biochemical, kinetic fluorescence intensity, dose response (AID 624326); assay type: functional;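 note: rate of fluorescence rise from hydrolysis of a fluorogenic O-methyl fluorescein ester substrate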
[15] = molecular target: T3, Histone-lysine N-methyltransferase NSD2 (Homo sapiens, UniProt O96028); assay type: biochemical
T3 sequence (O96028 whole entry): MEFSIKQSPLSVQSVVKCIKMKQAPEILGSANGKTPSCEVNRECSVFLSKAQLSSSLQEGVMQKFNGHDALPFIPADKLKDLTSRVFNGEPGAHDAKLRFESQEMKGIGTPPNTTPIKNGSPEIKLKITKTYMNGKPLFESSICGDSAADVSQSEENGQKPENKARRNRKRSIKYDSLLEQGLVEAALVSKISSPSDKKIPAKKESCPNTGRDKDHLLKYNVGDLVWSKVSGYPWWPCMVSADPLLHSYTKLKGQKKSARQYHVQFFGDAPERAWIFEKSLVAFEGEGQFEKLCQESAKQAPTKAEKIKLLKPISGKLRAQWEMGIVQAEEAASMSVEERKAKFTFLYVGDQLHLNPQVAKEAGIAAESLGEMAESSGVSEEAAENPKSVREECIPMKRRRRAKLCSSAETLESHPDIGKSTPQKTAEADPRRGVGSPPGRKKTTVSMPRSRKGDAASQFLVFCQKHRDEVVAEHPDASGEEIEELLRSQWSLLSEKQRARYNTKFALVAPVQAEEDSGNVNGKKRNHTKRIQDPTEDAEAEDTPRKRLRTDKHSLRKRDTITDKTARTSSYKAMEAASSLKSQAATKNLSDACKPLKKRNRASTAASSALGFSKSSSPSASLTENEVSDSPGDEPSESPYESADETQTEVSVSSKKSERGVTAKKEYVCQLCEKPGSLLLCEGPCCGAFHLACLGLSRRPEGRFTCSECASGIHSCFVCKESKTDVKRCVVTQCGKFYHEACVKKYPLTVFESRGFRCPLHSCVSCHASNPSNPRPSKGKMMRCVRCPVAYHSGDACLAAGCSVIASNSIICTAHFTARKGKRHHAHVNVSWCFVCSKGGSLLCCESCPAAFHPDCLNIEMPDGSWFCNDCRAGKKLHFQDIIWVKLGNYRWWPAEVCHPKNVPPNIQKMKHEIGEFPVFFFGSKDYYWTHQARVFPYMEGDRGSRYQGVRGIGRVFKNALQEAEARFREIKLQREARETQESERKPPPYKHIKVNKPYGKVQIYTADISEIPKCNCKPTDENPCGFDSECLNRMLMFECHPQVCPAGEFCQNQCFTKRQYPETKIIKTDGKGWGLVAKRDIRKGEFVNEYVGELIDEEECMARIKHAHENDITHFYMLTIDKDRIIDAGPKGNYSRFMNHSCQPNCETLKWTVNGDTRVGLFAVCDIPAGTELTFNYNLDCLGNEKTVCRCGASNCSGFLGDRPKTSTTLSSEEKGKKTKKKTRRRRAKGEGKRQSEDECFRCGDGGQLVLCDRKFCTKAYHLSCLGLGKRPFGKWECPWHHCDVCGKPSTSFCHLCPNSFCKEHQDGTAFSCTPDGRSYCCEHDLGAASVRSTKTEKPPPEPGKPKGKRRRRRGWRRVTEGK

[16] = molecular target: T4, Estrogen receptor beta (Homo sapiens, UniProt Q92731);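 note: recombinant ER-beta bound to coactivator SRC1 peptide in presence of estradiol agonist; inhibitors block coactivator peptide binding and lower the FRET signal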
[17] = molecular target: T4, Estrogen receptor beta; test: blockers of SRC-3 recruitment to ERβ – biochemical, ELISA, streptavidin-HRP readout, orthogonal assay, confirmation (AID 1060)
[18] = molecular target: T5, Carboxy-terminal domain RNA polymerase II polypeptide A small phosphatase 1 (Homo sapiens, UniProt Q9GZU7); test: CTDSP1 inhibitors, concentration-response, biochemical, absorbance readout, ultra-high-throughput screen actives (AID 540297); assay type: functional
T5 sequence (Q9GZU7 whole entry): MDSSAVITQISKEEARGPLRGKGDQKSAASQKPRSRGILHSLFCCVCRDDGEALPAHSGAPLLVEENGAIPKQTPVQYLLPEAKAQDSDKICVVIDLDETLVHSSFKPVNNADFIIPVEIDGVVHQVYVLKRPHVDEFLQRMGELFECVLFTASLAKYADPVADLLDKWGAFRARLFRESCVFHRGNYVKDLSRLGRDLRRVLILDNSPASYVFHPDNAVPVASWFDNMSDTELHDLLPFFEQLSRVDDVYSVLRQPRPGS

[19] = luciferase reporter signal suppression in cells – H4 neuroglioma cells, luminescence, dose response (AID 1990); assay type: functional, cell-based
[20] = Luminescence Cell-Based Dose Response HTS to Identify Inhibitors of 5'UTR Stem-Loop Driven Prion Protein mRNA Translation in H4 Neuroglioblastoma Cells. [Related pubchem assays: 1827 (Project Summary), 1813 (Primary HTS)]; assay type: functional
[21] = alpha-synuclein stem-loop luciferase translation blockers – H4 neuroglioma cells, luminescence, confirmation (AID 1988); assay type: functional, cell-based
[22] = Luminescence Cell-Based Dose Confirmation HTS to Identify Activators of 5'UTR Stem-Loop Driven Alpha-Synuclein mRNA Translation in H4 Neuroglioblastoma Cells. [Related pubchem assays: 1829 (Project Summary), 1814 (Primary HTS)]; assay type: functional
[23] = Luminescence Cell-Based Dose Response HTS to Identify Activators of Luciferase Translation or Activity in H4 […] Cells. [Related pubchem assays: 1829 (Project Summary), 1814 (Primary HTS)]; assay type: functional
[24] = test system: H4; test: Luminescence Cell-Based Dose Response HTS to Identify Activators of 5'UTR Stem-Loop Driven Prion Protein mRNA Translation in H4 Neuroglioblastoma Cells. [Related pubchem assays: 1829 (Project Summary), 1814 (Primary HTS)]; assay type: functional; settings: Homo sapiens
[25] = molecular target: T6, Microphthalmia-associated transcription factor (Homo sapiens, UniProt O75030); test: reducers of TRPM1 reporter luminescence, concentration series – cell-based, SK-MEL-5, cherry-picked, set 3, MITF inhibitor project, dose response (AID 493073); assay type: functional;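 note: SK-MEL-5 melanoma cells with luciferase driven by the MITF target TRPM1 promoter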
T6 sequence (O75030 whole entry): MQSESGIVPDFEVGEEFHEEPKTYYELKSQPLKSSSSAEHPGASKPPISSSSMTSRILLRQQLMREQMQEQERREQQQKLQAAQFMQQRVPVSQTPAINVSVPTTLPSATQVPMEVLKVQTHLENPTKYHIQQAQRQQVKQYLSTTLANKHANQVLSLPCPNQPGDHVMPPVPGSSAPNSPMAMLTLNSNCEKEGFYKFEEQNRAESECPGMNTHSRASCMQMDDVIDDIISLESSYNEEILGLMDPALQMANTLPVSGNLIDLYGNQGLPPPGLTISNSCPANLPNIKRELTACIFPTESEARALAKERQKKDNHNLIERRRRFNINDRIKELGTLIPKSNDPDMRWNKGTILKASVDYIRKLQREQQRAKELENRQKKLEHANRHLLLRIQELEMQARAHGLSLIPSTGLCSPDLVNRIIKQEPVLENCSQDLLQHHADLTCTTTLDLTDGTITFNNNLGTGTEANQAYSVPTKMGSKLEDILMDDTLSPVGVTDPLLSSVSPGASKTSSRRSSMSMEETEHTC

T2 sequence (P49327 whole entry): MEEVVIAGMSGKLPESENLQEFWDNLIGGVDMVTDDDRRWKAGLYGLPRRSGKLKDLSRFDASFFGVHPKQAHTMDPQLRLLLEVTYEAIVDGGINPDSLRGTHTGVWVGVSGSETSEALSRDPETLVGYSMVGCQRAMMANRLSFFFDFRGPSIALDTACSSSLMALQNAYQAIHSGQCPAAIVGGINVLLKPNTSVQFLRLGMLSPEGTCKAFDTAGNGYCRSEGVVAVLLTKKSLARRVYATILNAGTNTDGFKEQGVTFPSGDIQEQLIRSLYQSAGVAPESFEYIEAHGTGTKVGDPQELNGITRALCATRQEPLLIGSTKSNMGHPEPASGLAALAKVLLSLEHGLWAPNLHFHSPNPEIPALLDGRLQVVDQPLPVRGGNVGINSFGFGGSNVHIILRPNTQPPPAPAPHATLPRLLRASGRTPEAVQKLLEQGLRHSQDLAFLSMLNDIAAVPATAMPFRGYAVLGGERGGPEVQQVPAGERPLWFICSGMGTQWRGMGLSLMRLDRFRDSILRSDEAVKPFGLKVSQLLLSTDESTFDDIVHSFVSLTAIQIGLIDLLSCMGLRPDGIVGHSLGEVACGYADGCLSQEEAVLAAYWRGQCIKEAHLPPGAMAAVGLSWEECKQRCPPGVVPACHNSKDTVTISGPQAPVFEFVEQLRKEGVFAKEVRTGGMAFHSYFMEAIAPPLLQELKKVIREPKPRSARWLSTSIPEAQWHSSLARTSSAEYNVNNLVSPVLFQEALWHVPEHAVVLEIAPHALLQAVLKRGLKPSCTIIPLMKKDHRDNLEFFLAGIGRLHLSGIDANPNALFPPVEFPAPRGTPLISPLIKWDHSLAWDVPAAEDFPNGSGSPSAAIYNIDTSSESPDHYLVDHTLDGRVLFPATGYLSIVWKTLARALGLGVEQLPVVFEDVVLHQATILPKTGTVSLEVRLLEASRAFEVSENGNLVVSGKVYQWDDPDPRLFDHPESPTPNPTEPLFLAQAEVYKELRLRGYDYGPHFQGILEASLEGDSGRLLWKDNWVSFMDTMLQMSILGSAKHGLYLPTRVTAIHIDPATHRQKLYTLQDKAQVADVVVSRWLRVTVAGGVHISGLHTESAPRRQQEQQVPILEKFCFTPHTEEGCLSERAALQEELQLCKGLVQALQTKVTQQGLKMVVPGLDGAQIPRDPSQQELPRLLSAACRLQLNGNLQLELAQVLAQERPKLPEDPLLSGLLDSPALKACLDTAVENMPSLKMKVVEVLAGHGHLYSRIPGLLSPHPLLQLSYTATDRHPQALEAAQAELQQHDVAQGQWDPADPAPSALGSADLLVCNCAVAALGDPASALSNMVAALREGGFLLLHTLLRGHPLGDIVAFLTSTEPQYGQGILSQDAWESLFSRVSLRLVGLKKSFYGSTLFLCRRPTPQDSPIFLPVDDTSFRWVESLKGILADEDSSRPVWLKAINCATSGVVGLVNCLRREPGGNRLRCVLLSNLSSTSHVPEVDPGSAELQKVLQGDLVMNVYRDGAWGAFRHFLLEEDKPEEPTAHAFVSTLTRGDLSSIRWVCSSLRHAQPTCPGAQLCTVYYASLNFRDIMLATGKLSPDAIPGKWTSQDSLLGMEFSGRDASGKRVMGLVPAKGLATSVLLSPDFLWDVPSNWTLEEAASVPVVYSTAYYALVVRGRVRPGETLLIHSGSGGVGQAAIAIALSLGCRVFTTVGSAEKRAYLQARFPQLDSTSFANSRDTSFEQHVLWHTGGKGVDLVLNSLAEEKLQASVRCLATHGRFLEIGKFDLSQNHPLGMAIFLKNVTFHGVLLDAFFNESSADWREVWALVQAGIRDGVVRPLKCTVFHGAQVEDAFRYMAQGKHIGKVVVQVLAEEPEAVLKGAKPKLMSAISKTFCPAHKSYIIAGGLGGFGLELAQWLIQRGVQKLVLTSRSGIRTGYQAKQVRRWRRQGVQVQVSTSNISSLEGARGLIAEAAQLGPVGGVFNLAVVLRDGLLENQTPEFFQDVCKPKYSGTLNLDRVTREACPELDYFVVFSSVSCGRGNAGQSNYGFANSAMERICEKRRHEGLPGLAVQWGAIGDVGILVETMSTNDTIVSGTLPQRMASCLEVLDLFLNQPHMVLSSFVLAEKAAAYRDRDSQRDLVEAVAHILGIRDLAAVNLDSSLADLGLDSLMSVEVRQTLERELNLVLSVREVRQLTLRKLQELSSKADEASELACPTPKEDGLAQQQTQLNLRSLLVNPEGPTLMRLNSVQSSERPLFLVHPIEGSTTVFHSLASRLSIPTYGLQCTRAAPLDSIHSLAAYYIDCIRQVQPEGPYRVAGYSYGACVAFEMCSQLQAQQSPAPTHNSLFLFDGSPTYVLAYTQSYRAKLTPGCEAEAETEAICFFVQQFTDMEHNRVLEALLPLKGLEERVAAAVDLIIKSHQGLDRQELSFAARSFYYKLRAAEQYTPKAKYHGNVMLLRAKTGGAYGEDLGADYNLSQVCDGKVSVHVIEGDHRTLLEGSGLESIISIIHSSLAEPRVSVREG
T4 sequence (Q92731 whole entry): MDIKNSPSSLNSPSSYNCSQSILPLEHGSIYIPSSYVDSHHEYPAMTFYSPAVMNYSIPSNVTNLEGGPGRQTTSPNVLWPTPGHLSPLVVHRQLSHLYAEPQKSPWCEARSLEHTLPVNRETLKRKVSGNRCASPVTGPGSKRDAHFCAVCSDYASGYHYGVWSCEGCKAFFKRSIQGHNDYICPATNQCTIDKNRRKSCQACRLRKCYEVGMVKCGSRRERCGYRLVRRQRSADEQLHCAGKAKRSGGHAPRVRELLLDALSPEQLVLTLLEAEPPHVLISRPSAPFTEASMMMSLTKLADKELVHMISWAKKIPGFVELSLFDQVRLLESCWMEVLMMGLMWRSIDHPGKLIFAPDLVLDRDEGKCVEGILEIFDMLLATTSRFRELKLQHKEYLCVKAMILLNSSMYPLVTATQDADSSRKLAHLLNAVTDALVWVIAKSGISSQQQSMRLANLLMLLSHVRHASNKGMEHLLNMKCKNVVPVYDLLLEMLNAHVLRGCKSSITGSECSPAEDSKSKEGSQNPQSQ
Sequence of Mitogen-activated protein kinase 10 (P53779 whole entry): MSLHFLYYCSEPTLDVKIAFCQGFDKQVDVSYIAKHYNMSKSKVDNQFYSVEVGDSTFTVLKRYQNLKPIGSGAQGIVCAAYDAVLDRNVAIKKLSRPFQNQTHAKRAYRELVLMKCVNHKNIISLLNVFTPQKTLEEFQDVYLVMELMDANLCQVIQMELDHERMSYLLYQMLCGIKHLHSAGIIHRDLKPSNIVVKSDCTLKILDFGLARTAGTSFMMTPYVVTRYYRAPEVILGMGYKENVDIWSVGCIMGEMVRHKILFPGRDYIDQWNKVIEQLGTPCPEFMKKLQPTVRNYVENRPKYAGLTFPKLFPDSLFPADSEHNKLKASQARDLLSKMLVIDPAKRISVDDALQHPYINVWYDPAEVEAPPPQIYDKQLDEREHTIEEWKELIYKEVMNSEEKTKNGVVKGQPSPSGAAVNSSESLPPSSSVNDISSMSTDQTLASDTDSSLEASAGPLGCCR

O=C(Nc1nnc(C2CC2)s1)c1ccccn1
AC50 [1]: 7.92 µM (active) | AC50 [2]: 8.23 µM (active) | AC50 [3]: 18.3 µM (active) | AC50 [4]: 17.1 µM (active) | AC50 [5]: 19 µM (active)

c1ccc(-c2nc(NCc3cccnc3)c3oc4ccccc4c3n2)cc1
CC50 [6]: 28.9 µM (active) | EC50 [7]: 14.2 µM (active) | EC50 [8]: 2.22 µM (active) | EC50 [9]: 15.8 µM (active) | EC50 [10]: > 60 µM (not active) | EC50 [11]: > 260 µM (inactive)

CCOC(=O)c1cnc2ccc(Cl)cc2c1N1CCN(C)CC1
IC50 [12]: 25.9 µM (not active)

COc1ccc(/C=C(\NC(=O)c2ccc([N+](=O)[O-])cc2)C(=O)NCCCN2CCOCC2)cc1
IC50 [13]: 4.51 µM (active) | IC50 [14]: 2.95 µM (active)

CCN(CC)CCCNc1cc(C)c(C#N)c2nc3ccccc3n12
AC50 [15]: > 20 µM (inactive)

O=C(COC(=O)c1ccccc1)NCc1ccco1
IC50 [16]: 5.54 µM (active) | IC50 [17]: 0.351 µM (not active) | IC50 [18]: 11.1 µM (active)

Cc1nc(NCc2ccco2)c(C#N)c2c1COC(C)(C)C2
IC50 [12]: 37.5 µM (not active)

COc1ccc(C(=O)Nc2ccc3ccccc3c2)cc1
EC50 [19]: 9.12 µM (inconclusive) | EC50 [20]: 10.4 µM (inconclusive) | EC50 [21]: 6.82 µM (active) | AC50 [2]: 45.6 µM (active) | AC50 [3]: 5.78 µM (active) | AC50 [4]: 8.43 µM (active)

CN1CCN(CC(=O)Nc2sc3c(c2C#N)CCC(C(C)(C)C)C3)CC1 (stereo unspecified)
EC50 [7]: > 20 µM (not active) | EC50 [9]: > 20 µM (not active)

CN(Cc1ccc(C(C)(C)C)cc1)C(=O)Cc1ccc(S(=O)(=O)N2CCOCC2)s1
IC50 [13]: 0.424 µM (active) | IC50 [14]: 0.291 µM (active)

N#CC1=C(N)NC(SCc2ccc(F)cc2)=C(C#N)C12CCCCC2
EC50 [22]: > 120 µM (not active) | EC50 [23]: > 120 µM (not active) | EC50 [24]: > 120 µM (not active) | EC50 [7]: 10.4 µM (active) | EC50 [9]: 9.03 µM (active)

Cc1ccc(-n2[nH]c(=O)c(-c3ccccn3)c2C)cc1
EC50 [20]: 0.571 µM (active) | EC50 [21]: 2 µM (active) | AC50 [25]: 3.23 µM (active) | AC50 [1]: > 52 µM (inactive) | AC50 [3]: 1.61 µM (active) | AC50 [4]: 2.08 µM (active)

CCNCCC(CCC(C)C)c1ccc2c(c1)OCO2 (stereo unspecified)
AC50 [15]: > 20 µM (inactive)
